Tests used:
Type in all cases: in vivo
rape (Brassica napus) = experiment: Test B pre-/postemergence; set-up: key: 0 is no effect; 10 is complete control
How it was run: (§1)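 Compounds in a surfactant-containing, non-phytotoxic solvent blend are applied to freshly planted seed (preemergence) and, concurrently, to seedlings of 2 to 18 cm at 1–4 leaves (postemergence). Plants stay in the greenhouse twelve to sixteen days and are then scored visually from 0 (no effect) to 10 (complete control).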

[1] = system: bedstraw (Galium aparine); experiment: Test B pre-/postemergence; set-up: key: 0 is no effect; 10 is complete control
How it was run: as §1

[2] = system: lambsquarters (Chenopodium album); experiment: Test C; set-up: key: 0 was no effect; 100 was complete control
rice (Oryza sativa) = experiment: Test B flood test; set-up: key: 0 is no effect; 10 is complete control
How it was run: (§2)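 Read-out is a visual response score from 0 (no effect) to 10 (complete control), assigned by comparison with untreated controls. Treatment was applied at the 2-leaf stage, and plants stayed in the greenhouse for twelve to sixteen days before scoring.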

[3] = system: bamyardgrass (Echinochloa crus-galli); experiment: Test B flood test; set-up: key: 0 is no effect; 10 is complete control
How it was run: as §2

[4] = system: duck salad (Heteranthera limosa); experiment: Test B flood test; set-up: key: 0 is no effect; 10 is complete control
How it was run: as §2

[5] = system: smallflower flatsedge (Cyperus difformis); experiment: Test B flood test; set-up: key: 0 is no effect; 10 is complete control
How it was run: as §2

[6] = system: tall mallow (Malva sylvestris); experiment: Test E pre-/postemergence/post directed; set-up: key: 0 is no effect; 100 is complete control; conditions: PREEMERGENCE
How it was run: (§3)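 Injury was scored visually on a 0 to 100 scale (100 = complete control) 13 to 21 days after treatment of greenhouse-grown plants. Test chemicals, in a surfactant-containing non-phytotoxic solvent, were sprayed onto soil within a day of planting, onto plants at the two to four leaf stage, or directed at the base of the plants.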

[7] = system: large crabgrass (Digitaria sanguinalis); experiment: Test E pre-/postemergence/post directed; set-up: key: 0 is no effect; 100 is complete control; conditions: PREEMERGENCE
How it was run: as §3

[8] = system: surinam grass (Brachiaria decumbens); experiment: Test E pre-/postemergence/post directed; set-up: key: 0 is no effect; 100 is complete control; conditions: PREEMERGENCE
How it was run: as §3

[9] = system: common groundsel (Senecio vulgaris); experiment: Test E pre-/postemergence/post directed; set-up: key: 0 is no effect; 100 is complete control; conditions: PREEMERGENCE
How it was run: as §3

[10] = system: bermudagrass (Cynodon dactylon); experiment: Test E pre-/postemergence/post directed; set-up: key: 0 is no effect; 100 is complete control; conditions: PREEMERGENCE
How it was run: as §3

[11] = system: sourgrass (Trichachne insularis); experiment: Test E pre-/postemergence/post directed; set-up: key: 0 is no effect; 100 is complete control
How it was run: as §3

[12] = system: common purslane (Portulaca oleracea); experiment: Test E pre-/postemergence/post directed; set-up: key: 0 is no effect; 100 is complete control
How it was run: as §3

[13] = Rate 62 g/ha, Postemergence (flood test)
[14] = Rate 125 g/ha, Postemergence, flood test
[15] = Rate 250 g/ha, Postemergence (flood test species)
[16] = Rate 500 g/ha, Postemergence (flood test species)

Cc1cnc(-n2ccc(C(F)(F)F)n2)nc1Cc1cccc(C(F)(F)F)c1 [Example 2, 5-methyl-4-[[3-(trifluoromethyl)phenyl]methyl]-2-[3-(trifluoromethyl)-1H-pyrazol-1-yl]pyrimidine]
Plant response rating, Rape (rape (Brassica napus); Rate 62 g/ha, Postemergence): 9
Rape plant response rating (rape (Brassica napus); Rate 62 g/ha, Preemergence): 10
Plant response rating, Rape (rape (Brassica napus); Rate 125 g/ha, Postemergence): 9
Rape plant response rating (rape (Brassica napus); Rate 125 g/ha, Preemergence): 10
Plant response rating, Rape (rape (Brassica napus); Rate 250 g/ha, Postemergence): 9
Plant response rating, Rape (rape (Brassica napus); Rate 250 g/ha, Preemergence): 10
Plant response rating, Rape (rape (Brassica napus); Rate 500 g/ha, Postemergence): 10
Plant response rating, Rape (rape (Brassica napus); Rate 500 g/ha, Preemergence): 10
Plant response rating, Bedstraw ([1]; Rate 62 g/ha, Postemergence): 9
Bedstraw plant response rating ([1]; Rate 62 g/ha, Preemergence): 10
Plant response rating, Bedstraw ([1]; Rate 125 g/ha, Postemergence): 9
Bedstraw plant response rating ([1]; Rate 125 g/ha, Preemergence): 10
Plant response rating, Bedstraw ([1]; Rate 250 g/ha, Postemergence): 9
Plant response rating, Bedstraw ([1]; Rate 250 g/ha, Preemergence): 10
Plant response rating, Bedstraw ([1]; Rate 500 g/ha, Postemergence): 9
Plant response rating, Bedstraw ([1]; Rate 500 g/ha, Preemergence): 10
Plant response rating, Lambsquarters ([2]; PREEMERGENCE, Rate 35 g/ha): 0
Plant response rating, Lambsquarters ([2]; PREEMERGENCE, Rate 140 g/ha): 100
Plant response rating, Rice (rice (Oryza sativa); [13]): 3
Plant response rating, Rice (rice (Oryza sativa); [14]): 4
Plant response rating, Rice (rice (Oryza sativa); [15]): 5
Plant response rating, Rice (rice (Oryza sativa); [16]): 6
Plant response rating, Barnyardgrass [3, 13]: 3
Plant response rating, Barnyardgrass [3, 14]: 4
Plant response rating, Barnyardgrass [3, 15]: 5
Plant response rating, Barnyardgrass [3, 16]: 6
Plant response rating, Ducksalad [4, 13]: 0
Plant response rating, Ducksalad [4, 14]: 0
Plant response rating, Ducksalad [4, 15]: 2
Plant response rating, Ducksalad [4, 16]: 2
Plant response rating, S. Flatsedge [5, 13]: 3
Plant response rating, S. Flatsedge [5, 14]: 5
Plant response rating, S. Flatsedge [5, 15]: 8
Plant response rating, S. Flatsedge [5, 16]: 9
Plant response rating, Tall Mallow ([6]; Rate 32 g/ha): 98
Plant response rating, Tall Mallow ([6]; Rate 64 g/ha): 100
Plant response rating, Tall Mallow ([6]; Rate 125 g/ha): 100
Plant response rating, Tall Mallow ([6]; Rate 250 g/ha): 100
Plant response rating, Tall Mallow ([6]; Rate 500 g/ha): 100
Plant response rating, Large crabgrass ([7]; Rate 64 g/ha): 100
Plant response rating, Large crabgrass ([7]; Rate 125 g/ha): 100
Plant response rating, Large crabgrass ([7]; Rate 250 g/ha): 100
Plant response rating, Large crabgrass ([7]; Rate 500 g/ha): 100
Plant response rating, Surinam grass ([8]; Rate 125 g/ha): 100
Plant response rating, Surinam grass ([8]; Rate 250 g/ha): 100
Plant response rating, Surinam grass ([8]; Rate 500 g/ha): 100
Plant response rating, Com. groundsel ([9]; Rate 32 g/ha): 100
Plant response rating, Com. groundsel ([9]; Rate 64 g/ha): 100
Plant response rating, Com. groundsel ([9]; Rate 125 g/ha): 100
Plant response rating, Com. groundsel ([9]; Rate 250 g/ha): 100
Plant response rating, Com. groundsel ([9]; Rate 500 g/ha): 100
Plant response rating, Bermudagrass ([10]; Rate 64 g/ha): 100
Plant response rating, Bermudagrass ([10]; Rate 125 g/ha): 100
Plant response rating, Bermudagrass ([10]; Rate 250 g/ha): 100
Plant response rating, Bermudagrass ([10]; Rate 500 g/ha): 100
Plant response rating, Sourgrass ([11]; POSTEMERGENCE, Rate 32 g/ha): 10
Plant response rating, Sourgrass ([11]; POSTEMERGENCE, Rate 64 g/ha): 20
Plant response rating, Sourgrass ([11]; POSTEMERGENCE, Rate 125 g/ha): 20
Plant response rating, Sourgrass ([11]; POSTEMERGENCE, Rate 250 g/ha): 40
Plant response rating, Sourgrass ([11]; POSTEMERGENCE, Rate 500 g/ha): 80
Plant response rating, Sourgrass ([11]; PREEMERGENCE, Rate 32 g/ha): 100
Plant response rating, Sourgrass ([11]; PREEMERGENCE, Rate 64 g/ha): 100
Plant response rating, Sourgrass ([11]; PREEMERGENCE, Rate 125 g/ha): 100
Plant response rating, Sourgrass ([11]; PREEMERGENCE, Rate 250 g/ha): 100
Plant response rating, Sourgrass ([11]; PREEMERGENCE, Rate 500 g/ha): 100
Plant response rating, Com. purslane ([12]; POSTEMERGENCE, Rate 32 g/ha): 65
Plant response rating, Com. purslane ([12]; POSTEMERGENCE, Rate 64 g/ha): 65
Plant response rating, Com. purslane ([12]; POSTEMERGENCE, Rate 125 g/ha): 65
Plant response rating, Com. purslane ([12]; POSTEMERGENCE, Rate 250 g/ha): 70
Plant response rating, Com. purslane ([12]; POSTEMERGENCE, Rate 500 g/ha): 70
Plant response rating, Com. purslane ([12]; PREEMERGENCE, Rate 32 g/ha): 100
Plant response rating, Com. purslane ([12]; PREEMERGENCE, Rate 64 g/ha): 100
Plant response rating, Com. purslane ([12]; PREEMERGENCE, Rate 125 g/ha): 100
Plant response rating, Com. purslane ([12]; PREEMERGENCE, Rate 250 g/ha): 100
Plant response rating, Com. purslane ([12]; PREEMERGENCE, Rate 500 g/ha): 100

Cc1cnc(-c2ccc(C(F)(F)F)cc2)nc1Cn1ccc(C(F)(F)F)n1 [compound 9]
Plant response rating, Rape (rape (Brassica napus); Rate 62 g/ha, Postemergence): 9
Rape plant response rating (rape (Brassica napus); Rate 62 g/ha, Preemergence): 9
Plant response rating, Rape (rape (Brassica napus); Rate 125 g/ha, Postemergence): 10
Rape plant response rating (rape (Brassica napus); Rate 125 g/ha, Preemergence): 9
Plant response rating, Rape (rape (Brassica napus); Rate 250 g/ha, Postemergence): 10
Plant response rating, Rape (rape (Brassica napus); Rate 250 g/ha, Preemergence): 10
Plant response rating, Rape (rape (Brassica napus); Rate 500 g/ha, Postemergence): 10
Plant response rating, Rape (rape (Brassica napus); Rate 500 g/ha, Preemergence): 10
Plant response rating, Bedstraw ([1]; Rate 62 g/ha, Postemergence): 10
Bedstraw plant response rating ([1]; Rate 62 g/ha, Preemergence): 4
Plant response rating, Bedstraw ([1]; Rate 125 g/ha, Postemergence): 10
Bedstraw plant response rating ([1]; Rate 125 g/ha, Preemergence): 7
Plant response rating, Bedstraw ([1]; Rate 250 g/ha, Postemergence): 10
Plant response rating, Bedstraw ([1]; Rate 250 g/ha, Preemergence): 10
Plant response rating, Bedstraw ([1]; Rate 500 g/ha, Postemergence): 10
Plant response rating, Bedstraw ([1]; Rate 500 g/ha, Preemergence): 9
Plant response rating, Lambsquarters ([2]; POSTEMERGENCE, Rate 35 g/ha): 75
Plant response rating, Lambsquarters ([2]; POSTEMERGENCE, Rate 70 g/ha): 80
Plant response rating, Lambsquarters ([2]; POSTEMERGENCE, Rate 140 g/ha): 100
Plant response rating, Lambsquarters ([2]; PREEMERGENCE, Rate 35 g/ha): 95
Plant response rating, Lambsquarters ([2]; PREEMERGENCE, Rate 70 g/ha): 100
Plant response rating, Lambsquarters ([2]; PREEMERGENCE, Rate 140 g/ha): 100
Plant response rating, Rice (rice (Oryza sativa); [13]): 5
Plant response rating, Rice (rice (Oryza sativa); [14]): 6
Plant response rating, Rice (rice (Oryza sativa); [15]): 7
Plant response rating, Rice (rice (Oryza sativa); [16]): 8
Plant response rating, Barnyardgrass [3, 13]: 5
Plant response rating, Barnyardgrass [3, 14]: 5
Plant response rating, Barnyardgrass [3, 15]: 7
Plant response rating, Barnyardgrass [3, 16]: 8
Plant response rating, Ducksalad [4, 13]: 4
Plant response rating, Ducksalad [4, 14]: 6
Plant response rating, Ducksalad [4, 15]: 7
Plant response rating, Ducksalad [4, 16]: 6
Plant response rating, S. Flatsedge [5, 13]: 8
Plant response rating, S. Flatsedge [5, 14]: 9
Plant response rating, S. Flatsedge [5, 15]: 9
Plant response rating, S. Flatsedge [5, 16]: 9
Plant response rating, Tall Mallow ([6]; Rate 32 g/ha): 100
Plant response rating, Tall Mallow ([6]; Rate 64 g/ha): 100
Plant response rating, Tall Mallow ([6]; Rate 125 g/ha): 100
Plant response rating, Tall Mallow ([6]; Rate 250 g/ha): 100
Plant response rating, Large crabgrass ([7]; Rate 64 g/ha): 100
Plant response rating, Large crabgrass ([7]; Rate 125 g/ha): 100
Plant response rating, Large crabgrass ([7]; Rate 250 g/ha): 100
Plant response rating, Surinam grass ([8]; Rate 250 g/ha): 100
Plant response rating, Com. groundsel ([9]; Rate 64 g/ha): 100
Plant response rating, Com. groundsel ([9]; Rate 125 g/ha): 100
Plant response rating, Com. groundsel ([9]; Rate 250 g/ha): 100
Plant response rating, Bermudagrass ([10]; Rate 125 g/ha): 100
Plant response rating, Bermudagrass ([10]; Rate 250 g/ha): 100
Plant response rating, Sourgrass ([11]; POSTEMERGENCE, Rate 125 g/ha): 10
Plant response rating, Sourgrass ([11]; POSTEMERGENCE, Rate 250 g/ha): 30
Plant response rating, Sourgrass ([11]; PREEMERGENCE, Rate 32 g/ha): 85
Plant response rating, Sourgrass ([11]; PREEMERGENCE, Rate 64 g/ha): 100
Plant response rating, Sourgrass ([11]; PREEMERGENCE, Rate 125 g/ha): 100
Plant response rating, Sourgrass ([11]; PREEMERGENCE, Rate 250 g/ha): 100
Plant response rating, Com. purslane ([12]; POSTEMERGENCE, Rate 125 g/ha): 80
Plant response rating, Com. purslane ([12]; POSTEMERGENCE, Rate 250 g/ha): 80
Plant response rating, Com. purslane ([12]; PREEMERGENCE, Rate 32 g/ha): 100
Plant response rating, Com. purslane ([12]; PREEMERGENCE, Rate 64 g/ha): 100
Plant response rating, Com. purslane ([12]; PREEMERGENCE, Rate 125 g/ha): 100
Plant response rating, Com. purslane ([12]; PREEMERGENCE, Rate 250 g/ha): 100

From patent US6525001B1, “Substituted pyrimidine and pyridine herbicides” (Mid-American Commercialization Corporation, priority 1997, dated 2003)
